From PMC12588666 (Therapeutic Drug Monitoring, 2025)

How the values were obtained:
S. aureus [1] = assay: Susceptibility of intraoperative culture isolate, S. aureus (case 1); type: cell-based, Staphylococcus aureus; conditions: case 1 intraoperative culture
Procedure: (§1) Case 1: A patient (102.5 kg, creatinine clearance of 71 mL/min based on a 6-hour urine collection) developed a polymicrobial implant-associated spinal infection (IASI) after Th9-L3 spondylodesis and laminectomy at Th12. […] Surgical debridement was performed before dalbavancin therapy.
(§2) Intravenous vancomycin and ceftriaxone were initiated to treat S. aureus, P. mirabilis, and E. faecium. S. aureus was susceptible to both agents, P. mirabilis to ceftriaxone, and E. faecium to vancomycin. After 1 week, ceftriaxone was switched to oral ciprofloxacin.

P. mirabilis = assay: Susceptibility of intraoperative culture isolate, P. mirabilis (case 1); type: cell-based, Proteus mirabilis; conditions: case 1 intraoperative culture
Procedure: as §1, §2

[2] = test system: implant-associated spinal infection (IASI); assay: Clinical outcome and tolerability in patients with implant-associated spinal infection
Procedure: The total duration of the antimicrobial treatment was 12 weeks. Creatinine levels remained stable.
Symptoms resolved within 2.5 hours after 1-mg oral clemastine (antihistamine) and was discharged.

[3] = Dalbavancin plasma concentrations by LC-MS/MS (TDM, case 1); type: in vivo, human
Text: Background: Implant-associated spinal infections (IASI) pose challenges for outpatient management due to the need for frequent intravenous antibiotic administration. […] One patient received therapeutic drug monitoring (TDM)-guided dosing, while the other was managed with fixed-interval dosing. […] Both patients successfully completed therapy without recurrence of the infection during follow-up. […] Further research is required to establish standardized therapeutic drug monitoring protocols for the management of IASI.
The second 1500 mg dose followed on day 8, with TDM on days 22 and 28.

S. aureus [4] = conditions: in vivo; cited from earlier work
Text: (§3) The Clinical and Laboratory Standards Institute has defined a tentative susceptibility breakpoint o ...

E. faecium [5] = conditions: Clinical and Laboratory Standards Institute; cited from earlier work
Text: as §3

[6] = long half-life; cited from earlier work
E. faecium [7] = assay: Susceptibility of intraoperative culture isolate, E. faecium (case 1); type: cell-based, Enterococcus faecium; conditions: case 1 intraoperative culture
Procedure: as §1, §2

Structure (SMILES)	susceptibility of S. aureus (S. aureus [1])	susceptibility of P. mirabilis (P. mirabilis)	infection recurrence at follow-up ([2]; both patients (case 1 TDM-guided three doses, case 2 fixed-interval four doses of 1500 mg))	blood, renal, and liver tests ([2]; case 2)	adverse reaction after the final dose ([2]; case 2, 85 kg, 4 off-label 1500-mg doses every 2 weeks without TDM)	severity of reaction ([2]; case 2, possibly due to the infusion)	trough concentration before the third dalbavancin infusion ([3]; case 1, 102.5 kg, CrCl 71 mL/min, after 1500 mg doses on day 1 and day 8, single patient) [mg/L]	peak plasma concentration after the third dalbavancin infusion ([3]; case 1, third 1500-mg dose on day 44, single patient) [mg/L]	trough concentration corresponding to the ƒAUC24/MIC target (S. aureus [4]) [µg/mL]	tentative susceptibility breakpoint (E. faecium [5]) [mg/L]	half-life [6] [h]	susceptibility of E. faecium (E. faecium [7])
CO/N=C(\C(=O)N[C@@H]1C(=O)N2C(C(=O)O)=C(CSc3nc(=O)c(=O)[nH]n3C)CS[C@H]12)c1csc(N)n1 [ceftriaxone]	susceptible	susceptible	–	–	–	–	–	–	–	–	–	–
CN[C@H]1C(=O)N[C@@H]2Cc3ccc(cc3)Oc3cc4cc(c3O[C@@H]3O[C@H](C(=O)O)[C@@H](O)[C@H](O)[C@H]3NC(=O)CCCCCCCCC(C)C)Oc3ccc(cc3Cl)[C@@H](O)[C@@H]3NC(=O)[C@H](NC(=O)[C@@H]4NC(=O)[C@@H](NC2=O)c2cc(cc(O)c2Cl)Oc2cc1ccc2O)c1ccc(O)c(c1)-c1c(O[C@H]2O[C@H](CO)[C@@H](O)[C@H](O)[C@@H]2O)cc(O)cc1[C@@H](C(=O)NCCCN(C)C)NC3=O [dalbavancin]	–	–	without infection recurrence up to 8 months after therapy	remained normal	nausea, vomited once, and had a painful, itchy, erythematous, and swollen face	moderate reaction	10.3	301.8	≥ 8	0.25	147 to 258	–
CN[C@H](CC(C)C)C(=O)N[C@H]1C(=O)N[C@@H](CC(N)=O)C(=O)N[C@H]2C(=O)N[C@H]3C(=O)N[C@H](C(=O)N[C@H](C(=O)O)c4cc(O)cc(O)c4-c4cc3ccc4O)[C@H](O)c3ccc(c(Cl)c3)Oc3cc2cc(c3O[C@@H]2O[C@H](CO)[C@@H](O)[C@H](O)[C@H]2O[C@H]2C[C@](C)(N)[C@H](O)[C@H](C)O2)Oc2ccc(cc2Cl)[C@H]1O [vancomycin]	susceptible	–	–	–	–	–	–	–	–	–	–	susceptible
